Data from patent US20240082271A1, “Methods of Treatment of Fibrotic Diseases” (PHOST’IN THERAPEUTICS, priority 2021, published 2024).

Columns and labels:
[1] = tested on: NIH3T3 fibroblasts; test: Wound healing (scratch) inhibition test in presence of TGFβ; assay type: cell-based; settings: 1 μM tested compound, 24 h, in presence of TGFβ 5 ng/ml
Protocol: NIH3T3 fibroblasts were seeded at 40 000 cells per cm2 in a 24 well plate, DMEM+10% FBS.
Before wound/treatment, cells were washed twice in DMEM without serum then incubated in the appropriate condition DMEM+2.5% FBS, TGFβ+/−, PST3.1+/−.
TGFβ 5 ng/ml; PST3.1 1 μM, n=6 wells per treatment.
At t0, cell layer is scratched using a needle and observed under microscope to take 3 pictures per well using a scale measure referential to measure width of the scratch using imageJ software.
After 24 h of incubation in the desired condition, scratch is measured under microscope by taking 3 pictures at the same scale using the same referential.
Data are treated by calculating percentage of closing.

[2] = tested on: MGAT5 activity; test: L-PHA lectin staining of kidney sections as glycans marker of MGAT5 activity in SNx rats; assay type: in vivo, Sprague-Dawley rats; settings: treated SNx rats, 20 mg/kg daily oral, 4 weeks
From the text: Male Sprague-Dawley rats underwent ⅚ subtotal nephrectomy (SNx) and were used as the kidney fibrosis model, since SNx rats developed tubulointerstitial fibrosis. During this surgery, the right kidney is removed and 2 of the 3 branches of the left renal artery are ligated in order to necrose ⅔ of the kidney. The control kidney is right kidney before nephrectomy. Tubulointerstitial renal fibrosis inevitably leads to renal function deterioration and failure, independently of the primary renal disease. It is worth noting that in SNx rats, plasmatic creatinine concentration increases from 25.7±1.3 μM to 120.0±33.0 μM. Sirius red staining highlights fibrosis by staining collagens in paraffin-embedded kidney tissue sections. Five micrometer-thick sections were cut and mounted on glass slides. […] For each sample, quantification was performed with Image J software on pictures taken from 10 fields of kidney sections at 200-fold magnification. The staining area was measured on kidney section fields. […] Quantification was carried out as for histological staining.
Compound 3.1 was orally administered to control rats and SNx rats (as above described) at 20 mg/kg daily per 28 days. […] Histological and immunohistochemical methods were monitored as described in example 1.
Glycosylation resulting from MGAT5 activity will be specifically measured by L-PHA lectin staining. […]

[3] = tested on: SNx rats (renal fibrosis); test: Kidney fibrosis model: 5/6 subtotal nephrectomy (SNx) rats, histological and immunohistochemical staining of kidney sections; assay type: in vivo, Sprague-Dawley rats
From the text: Male Sprague-Dawley rats underwent ⅚ subtotal nephrectomy (SNx) and were used as the kidney fibrosis model, since SNx rats developed tubulointerstitial fibrosis. During this surgery, the right kidney is removed and 2 of the 3 branches of the left renal artery are ligated in order to necrose ⅔ of the kidney. The control kidney is right kidney before nephrectomy. Tubulointerstitial renal fibrosis inevitably leads to renal function deterioration and failure, independently of the primary renal disease. It is worth noting that in SNx rats, plasmatic creatinine concentration increases from 25.7±1.3 μM to 120.0±33.0 μM. Sirius red staining highlights fibrosis by staining collagens in paraffin-embedded kidney tissue sections. Five micrometer-thick sections were cut and mounted on glass slides. Slides were deparaffinized and stained with Sirius red for evaluation of collagen localization. […] The sections were mounted in Entelan mounting medium and examined under microscope. For each sample, quantification was performed with Image J software on pictures taken from 10 fields of kidney sections at 200-fold magnification. The staining area was measured on kidney section fields. Immunohistochemical analyses of kidney sections were also performed using paraffin sections. The primary antibody, anti-Mgat5 was incubated overnight at 4° C. Revelation was performed with Universal vectastain ABC kit and ImmPACT AE following the instructions of suppliers, Vector Laboratories. Then, the sections were mounted in an aqueous mounting medium, VectaMount™ AQ and examined under microscope (Nikon Eclipse TE300). Quantification was carried out as for histological staining.
Compound 3.1 was orally administered to control rats and SNx rats (as above described) at 20 mg/kg daily per 28 days. A control was carried out with a vehicle (without compound 3.1) administered in the same manner as compound 3.1. Sprague Dawley rats will be used. The rats will be fed ad libitum and will be placed in a 12 hour light, 12 hour dark cycle. They will be divided 3 per cage. Some rats undergo ⅚ subtotal nephrectomy (SNx) to develop chronic kidney failure which will lead to the development of renal fibrosis. The 3.1a treatment was administered to the rats on the day of nephrectomy and continued for the entire protocol. It is delivered as a nanosuspension diluted in drinking water. Control rats receive the solvent alone (placebo). Histological and immunohistochemical methods were monitored as described in example 1.

[4] = tested on: STAM NASH model mice (liver fibrosis); test: STAM NASH model mice, Sirius red-stained liver fibrosis area and tolerability; assay type: in vivo; settings: for Sirius red positive area (fibrosis area) of liver sections: PO 6-9 wks of age, compound 3.1 15 mg/kg BID, Telmisartan 10 mg/kg QD, mean±SD, p<0.01 vs vehicle
From the text: The STAM model (developed and standardized by SMC Laboratories, Japan https://www.smccro-lab.com/) is a model that recapitulates the same disease progression as human nonalcoholic steatohepatitis (NASH) and hepatocellular carcinoma (HCC): in 25% of affected patients (i.e. 20%-25% of the adult population), nonalcoholic fatty liver disease progresses to NASH, which increases the risk for the development of cirrhosis, liver failure, and hepatocellular carcinoma. In patients with NASH, liver fibrosis is the main determinant of mortality (https://doi.org/10.1053/j.gastro.2019.11.311). In this model, male C57BL/6 mice aged two days are given a single dose of streptozotocin to reduce insulin secretory capacity. When the mice turn four weeks of age they start a high-fat diet feeding. This model has a background of late type 2 diabetes which progresses into fatty liver, NASH, fibrosis and consequently liver cancer (HCC). Compared to other NASH-HCC model mice, the disease progresses in a relatively short period of time, and liver cancer is developed in 100% of animals at 20 weeks of age.
C57BL/6JJmsSlc mice (14-day-pregnant female) were obtained from Japan SLC, Inc. (Japan). Two days after birth, NASH is induced in male mice by a single subcutaneous injection of 200 μg streptozotocin (STZ, Sigma-Aldrich, USA) solution and feeding with high fat diet (HFD, 57 kcal % fat, Cat #HFD32, CLEA Japan, Inc., Japan) after 4 weeks of age. Sterilized solid HFD is provided ad libitum, and replaced once every 2 days according to the manufacturer's instructions. Then, NASH model mice are divided into 3 randomized groups of 10 mice at 6 weeks of age based on their body weight the day before the start of treatment. The randomization was performed by body weight-stratified random sampling using Excel software. NASH model mice were stratified by their body weight to get SD and the difference in the mean weights among groups as small as possible.
Group 1: Vehicle (10 NASH mice orally administered with Placebo nanosuspension in a volume of 10 mL/kg twice daily from 6 to 9 weeks of age).
Group 2: Compound 3.1 (PST3.1) ((10 NASH mice orally administered with compound 3.1 nanosuspension at a dose of 15 mg/kg in a volume of 10 mL/kg twice daily (2*15 mg/kg/day) from 6 to 9 weeks of age).
Group 3: Telmisartan (10 NASH mice will be orally administered vehicle supplemented with Telmisartan at a dose of 10 mg/kg once daily in a volume of 10 mL/kg from 6 to 9 weeks of age). Vehicle and compound 3.1 were provided by Phost'in Therapeutics SAS. Telmisartan (Micardis®) was purchased from Boehringer Ingelheim GmbH (Germany).
After 3 weeks of treatment mice were sacrificed, whole liver were collected and washed with cold saline. Individual whole liver (parietal side and visceral side) was taken photos. Liver weight were measured and liver-to-body weight ratio were calculated. The left lateral lobes of livers will be separated and dissected as described in FIG. 6, and stored as described below: • a: Liver specimens were stored at −80° C. embedded in Optimal Cutting Temperature (O.C.T., Sakura Finetek Japan, Japan) compound. • b: Liver specimens were fixed in Bouin's solution (Sigma-Aldrich, Japan) for 24 hours. After fixation, these specimens were proceeded to paraffin embedding for Sirius red-staining. • c: Liver specimens were snap frozen in liquid nitrogen and stored at −80° C.
Sections were cut from paraffin blocks of liver tissue using the rotary microtome (Leica Microsystems). […]

[5] = 15 mg/kg PO BID, 3 weeks of treatment

## CC(=O)N[C@@H]1[C@@H](OCc2ccccc2)[C@H](OCc2ccccc2)[C@@H](COCc2ccccc2)O[P@@]1(=O)c1ccccc1 [Compound 2.2, N-((2S,3S,4S,5S,6R)-4,5-bis(benzyloxy)-6-((benzyloxy)methyl)-2-oxido-2-phenyl-1,2-oxaphosphinan-3-yl)acetamide]
[1]
  % inhibition of wound healing: 28.7%

## O=[P@@]1(c2ccc(Oc3ccccc3)cc2)O[C@H](COCc2ccccc2)[C@@H](OCc2ccccc2)[C@H](OCc2ccccc2)[C@H]1O [Compound 3.0, (2S,3S,4S,5S,6R)-4,5-bis(benzyloxy)-6-((benzyloxy)methyl)-3-hydroxy-2-(4-phenoxyphenyl)-1,2-oxaphosphinane 2-oxide]
[1]
  % inhibition of wound healing: 23.0%

## O=[P@@]1(c2ccccc2)O[C@H](COCc2ccccc2)[C@@H](OCc2ccccc2)[C@H](OCc2ccccc2)C1O (stereo partly shown) [Compound 3.1, 3-Hydroxy-4,5-bis-benzyloxy-6-benzyloxymethyl-2-phenyl-2-oxo-2λ5-[1,2]oxaphosphinane]
[2]
  PHA-L staining of kidney sections: 5.1±0.5%
[3]; SNx rats treated, 20 mg/kg daily oral, 4 weeks
  fibrosis, Sirius red staining area of kidney sections: 5.8±1.2%
[3]; SNx treated rats vs SNx rats on placebo, 20 mg/kg daily oral, at 4 weeks
  plasma/serum creatinine concentration: lower serum creatinine
[3]; control (non-nephrectomized) rats, 20 mg/kg daily oral, 4 weeks
  treatment effect on collagen III in controls: no treatment effect
[3]; healthy animals or SNx, 4 weeks
  effect of treatment on fibrosis (Sirius red): no significant effect
[3]; treated SNx rats, 20 mg/kg daily oral, 4 weeks, p=0.014 vs untreated SNx
  collagen I expression, kidney immunostaining: 1.3±0.3%
[3]; treated SNx rats, 20 mg/kg daily oral, 4 weeks, p=0.015 vs untreated SNx
  collagen IV expression, kidney immunostaining: 6.4±0.3%
[3]; treated SNx rats, 20 mg/kg daily oral, 4 weeks, p=0.27 vs untreated SNx
  collagen III level, kidney immunostaining: 4.0±0.3%
[4]; [5]
  body weight loss: no body weight loss
  clinical signs: no clinical signs
  death: no death
[4]
  Sirius red positive area (fibrosis area) of liver sections: 0.47±0.12%
[1]
  % inhibition of wound healing: 42.0%

## CC1(C)OC[C@H](C2O[P@@](=O)(c3ccccc3)[C@H](NCc3ccccc3)[C@H]3OC(C)(C)O[C@@H]23)O1 (stereo partly drawn) [Compound 3.3, (3aR,6S,7S,7aS)-7-(benzylamino)-4-((R)-2,2-dimethyl-1,3-dioxolan-4-yl)-2,2-dimethyl-6-phenyltetrahydro-[1,3]dioxolo[4,5-d][1,2]oxaphosphinine 6-oxide]
[1]
  % inhibition of wound healing: 29.8%

## CC1(C)OC[C@H](C2O[P@](=O)(c3ccccc3)[C@@H](OC(=O)c3ccccc3)[C@H]3OC(C)(C)O[C@@H]23)O1 (stereo partly drawn) [Compound 4.2, (3aR,6R,7R, 7aS)-4-((R)-2,2-dimethyl-1,3-dioxolan-4-yl)-2,2-dimethyl-6-oxido-6-phenyltetrahydro-[1,3]dioxolo[4,5-d][1,2]oxaphosphinin-7-yl benzoate]
[1]
  % inhibition of wound healing: 17.2%

## c1ccc(CN[C@@H]2[C@@H](OCc3ccccc3)[C@H](OCc3ccccc3)[C@@H](COCc3ccccc3)O[P@@]2c2ccccc2)cc1 [Compound 4.6, (2S,3S,4S,5S,6R)-3-(benzylamino)-4,5-bis(benzyloxy)-6-((benzyloxy)methyl)-2-phenyl-1,2-oxaphosphinane]
[1]
  % inhibition of wound healing: 29.3%

## CCCc1nc2c(C)cc(-c3nc4ccccc4n3C)cc2n1Cc1ccc(-c2ccccc2C(=O)O)cc1 [Telmisartan, reference compound]
[4]
  Sirius red positive area (fibrosis area) of liver sections: 0.50±0.24%
